Laboratory results from patent publication EP0357134B1, “Antihypertensive 3-piperidinyl-indazole derivatives” (priority 1988, dated 1990).

Assays:
Format in all cases: in vivo
adult male Wistar rats [1] = assay: Combined test in rats: apomorphine (APO) test; settings: Rattus norvegicus, 0.5 h, read-out: Combined test in rats, ED₅₀ in mg/kg (APO)
Method: (§1) The experimental animals used in this test were adult male Wistar rats (weight 240 ± 10g). After an overnight fast, the animals were treated subcutaneously or orally with an aqueous solution of the compound under investigation (1ml/100g body weight) (time = zero) and put in isolated observation cages. […] At the end of this 1 hour period (time = 90 minutes) the same animals were injected intravenously with 40 mg/kg of tryptamine (TRY) and the presence of the typical tryptamine-induced bilateral tonic seizures and hyperaemia of the ears was noted. Two hours after pretreatment (time = 120 minutes) finally, the same animals were challenged with 1.25 mg/kg intravenously of norephinephrine (NOR) and possible mortality was looked for up to 60 minutes later.
(§2) The table 4 gives the ED₅₀-values of a number of the compounds under consideration. As used herein, the ED₅₀-value represents the dose which protects 50% of the animals from apomorphine-, tryptamine- or norepinephrine-induced phenomena.

adult male Wistar rats [2] = assay: Combined test in rats: tryptamine (TRY) test; settings: Rattus norvegicus, 1.5 h, compound subcutaneously or orally, 40 mg/kg tryptamine i.v. at 90 minutes, read-out: Combined test in rats
Method: as §1, §2

adult male Wistar rats [3] = assay: Combined test in rats: norepinephrine (NOR) test; settings: Rattus norvegicus; protection from norepinephrine-induced mortality; compound subcutaneously or orally; 1.25 mg/kg norepinephrine i.v. at 120 minutes, observed up to 60 minutes; read-out: Combined test in rats; ED₅₀ in mg/kg (NOR)
Method: as §1, §2

beagle dogs = assay: The apomorphine test in dogs (APO-dog); settings: Canis lupus familiaris, 1 h; dose protecting 50% of animals from emesis; compound subcutaneously or orally; 0.31 mg/kg (s.c.) apomorphine one hour thereafter; read-out: (APO)-dog test, ED₅₀ in mg/kg
Method: The method used is described by P.A.J. Janssen and C.J.E. Niemegeers in Arzneim.-Forsch. (Drug Res.), 9,765-767 (1959). The compounds listed in table 4 were administered subcutaneously or orally to beagle dogs at different doses and the animals were challenged one hour thereafter with a standard dose of 0.31 mg/kg (s.c.) of apomorphine.
The table 4 gives the ED₅₀-values of a number of the compounds under consideration. As used herein, the ED₅₀ value represents the dose which protects 50% of the animals from emesis.

[4] = protection from tryptamine-induced bilateral tonic seizures, ED₅₀ in mg/kg (TRY)-convulsions
[5] = protection from tryptamine-induced hyperaemia of the ears, ED₅₀ in mg/kg (TRY)-hyperaemia
[6] = dose protecting 50% of animals from apomorphine-induced agitation and stereotypic chewing, compound subcutaneously or orally, 1.25 mg/kg apomorphine hydrochloride i.v. at 30 minutes

SMILES | ED50 (adult male Wistar rats [1]) [mg/kg] | ED50 (adult male Wistar rats [2]; [4]) [mg/kg] | ED50 (adult male Wistar rats [2]; [5]) [mg/kg] | ED50 (adult male Wistar rats [3]) [mg/kg] | ED50 (beagle dogs) [mg/kg] | ED50 (adult male Wistar rats [1]; [6]) [mg/kg]
Cc1nc2n(c(=O)c1CCN1CCC(c3n[nH]c4cc(F)ccc34)CC1)CCS2 [Compound 2, 6-[2-[4-(6-fluoro-1H-indazol-3-yl)-1-piperidinyl]ethyl]-2,3-dihydro-7-methyl-5H-thiazolo[3,2-a]pyrimidin-5-one] | 5 | 5 | 0.005 | 0.31 | 0.002 | –
Cc1nc2ccccn2c(=O)c1CCN1CCC(c2nn(-c3ccc(F)cc3)c3cc(F)ccc23)CC1 [Compound 9] | > 10 | 5 | 0.08 | 5 | – | –
Cc1nc2ccccn2c(=O)c1CCN1CCC(c2nn(C)c3cc(F)ccc23)CC1 [Compound 11] | 5 | 0.31 | 0.005 | 0.08 | 0.12 | –
Cc1nc2n(c(=O)c1CCN1CCC(c3n[nH]c4cc(F)ccc34)CC1)CCCC2 [Compound 13] | > 10 | 1.25 | 0.02 | 0.31 | 0.015 | –
Cc1nc2sccn2c(=O)c1CCN1CCC(c2nn(-c3ccc(F)cc3)c3cc(F)ccc23)CC1 [Compound 16] | > 10 | 5 | 0.08 | > 10 | – | –
Cc1nc2sccn2c(=O)c1CCN1CCC(c2n[nH]c3cc(F)ccc23)CC1 [Compound 17] | 5 | 5 | 0.03 | 2 | 0.004 | –
Cc1nc2sccn2c(=O)c1CCN1CCC(c2nn(C)c3cc(F)ccc23)CC1 [Compound 18] | – | 1.25 | 0.005 | 1.25 | 0.2 | 5
Cc1nc2scc(C)n2c(=O)c1CCN1CCC(c2nn(-c3ccc(F)cc3)c3cc(F)ccc23)CC1 [Compound 20] | > 10 | ≥ 10 | 0.08 | > 10 | – | –
Cc1nc2scc(C)n2c(=O)c1CCN1CCC(c2nn(C)c3cc(F)ccc23)CC1 [Compound 21] | 1.25 | 0.08 | 0.005 | 0.31 | 0.12 | –
Cc1nc2n(c(=O)c1CCN1CCC(c3nn(C)c4cc(F)ccc34)CC1)CCS2 [Compound 25] | > 10 | 1.25 | 0.01 | 0.31 | < 0.015 | –
Cc1nc2c(C)cccn2c(=O)c1CCN1CCC(c2nn(Cc3ccccc3)c3cc(F)ccc23)CC1 [Compound 29] | – | 5 | ≤ 0.16 | 1.25 | 0.004 | 1.25
COc1ccc(Cn2nc(C3CCN(CCc4c(C)nc5n(c4=O)CCS5)CC3)c3ccc(F)cc32)cc1 [Compound 30, 6-[2-[4-[6-fluoro-1-[(4-methoxyphenyl)methyl]-1H-indazol-3-yl]-1-piperidinyl]ethyl]-2,3-dihydro-7-methyl-5H-thiazolo[3,2-a]pyrimidin-5-one] | > 10 | 10 | 0.08 | 5 | > 0.63 | –
COc1ccc2c(C3CCN(CCc4c(C)nc5sccn5c4=O)CC3)n[nH]c2c1 [Compound 34] | – | > 10 | 1.25 | 1.25 | > 0.01 | > 10
